In US20090131406A1 (BAYER CROPSCIENCE AG, priority 2005, published 2009):
Like-named read-outs stand apart in the source and are kept apart here. Each block holds one compound with its values, some of them ahead of it.

Legend:
[1] = logP determination by HPLC on a reversed-phase column (C 18) at pH 2.7; type: physicochemical; conditions: for chromatographic logP: reversed-phase C18 HPLC column
HeLa cells = assay: LIVE/DEAD cytotoxicity assay, inhibition of cell proliferation; type: cell-based, human; conditions: Homo sapiens, read-out: log GI50 values (M), HeLa cells (converted)
Description: (§1) The compounds of the general formula (I) according to the invention were tested for a possible cytotoxic or proliferation-inhibiting activity on the human tumour cell lines HeLa, SW620 and A375 (all from ATTC, American Type Culture Collection). To this end, the cells were plated in microtitre plates from Greiner (Manufacturer No. 781092) at a cell density of 1000 cells/microtitre plate well and cultivated in cell culture medium at 37° C. under a 5% carbon dioxide atmosphere. Cell culture media and additives were purchased from Invitrogen and the foetal calf serum from Biochrom. The cell culture media for Hela and A375 cells were used as stated by ATCC (HeLa: MEM, Order No. 10370-047, with 1% sodium bicarbonate, 1% non-essential amino acids, 1% sodium pyruvate, 10% foetal calf serum, 0.1% gentamycin; A375: DMEM, Order No. 41965-039, 2% sodium bicarbonate, 1% L-Glutamax, 10% foetal calf serum, 0.1% gentamycin). The culture medium for the SW620 cells consisted of DMEM, Order No. 41965-039, 1% non-essential amino acids, 10% foetal calf serum, 0.1% gentamycin.
24 hours after the cells had been plated in the microtitre plates, various concentrations of at most 100 μM down to a minimum concentration of 5 nM of the test compounds were added to the cells. […]
After a further 48 hours of incubation, the cells were washed with medium and analysed with the aid of a two-colour fluorescence cytotoxicity/viability test (LIVE/DEAD viability/cytotoxicity ASSAY kit from Molecular Probes, Order No. L-3224), according to the instructions of the manufacturer. […] The number of live cells was analysed by measuring the green fluorescence of the live dye calcein-AM as a component of the LIVE/DEAD reagent using a fluorescence plate reader (Flexstation, from Molecular Devices) at an excitation wavelength of 485 nm and an emission wavelength of 525 nm (cf. Oral, H. B. Endothelium 6, (1998), 143-151).
Cells only with cell culture medium, without added test compounds, were treated in parallel and analysed as growth controls. […]

A375 cells = assay: as above; type: cell-based, human; conditions: Homo sapiens, read-out: log GI50 values (M), A375 cells (converted)
Description: as §1
(§2) 24 hours after the cells had been plated in the microtitre plates, various concentrations of at most 100 μM down to a minimum concentration of 5 nM of the test compounds were added to the cells. Stock solutions of the test compounds (10 mM) were prepared in DMSO and stored at −20° C.; for the cytotoxicity tests, the test compounds were diluted in the appropriate cell culture medium.
(§3) After a further 48 hours of incubation, the cells were washed with medium and analysed with the aid of a two-colour fluorescence cytotoxicity/viability test (LIVE/DEAD viability/cytotoxicity ASSAY kit from Molecular Probes, Order No. L-3224), according to the instructions of the manufacturer. To this end, the medium was aspirated and in each case 30 μl of LIVE/DEAD reagent per microtitre plate well were added to the cells, which were then incubated for 30 minutes. The cells were then washed with PBS (phosphate-buffered saline). The number of live cells was analysed by measuring the green fluorescence of the live dye calcein-AM as a component of the LIVE/DEAD reagent using a fluorescence plate reader (Flexstation, from Molecular Devices) at an excitation wavelength of 485 nm and an emission wavelength of 525 nm (cf. Oral, H. B. Endothelium 6, (1998), 143-151).
(§4) Cells only with cell culture medium, without added test compounds, were treated in parallel and analysed as growth controls. The reference compounds used for anti-tumour agents having a cytotoxic or proliferation-inhibiting action were colchicine (from Merck/Calbiochem, Order No. 234115) and Taxol (baccatin III N-benzyl-b-phenylisoserine ester, from Merck/Calbiochem, Order No. 580555) (cf. Schiff, P. B. and Horwitz, S. B., Proceedings of the National Academy of Sciences of the U.S.A. 77, 1561-1565, 1980; Holmes, F. A. et al., Journal of the National Cancer Institute 83, 1797-1805, 1991).
(§5) The cytotoxic effects of the test compounds were expressed as logarithmic GI50 values (growth-inhibiting logarithmic concentration value at which a cell growth reduced by 50% compared to the control without test compounds was measured (cf. Xia et al., Journal of Medicinal Chemistry 44, 3932-3936, 2001; Smith, J. A. et al., Gynecologic Oncology 98, 141-145, 2005)).

SW620 cells = assay: as above; type: cell-based, human; conditions: Homo sapiens, read-out: log GI50 values (M), SW620 cells (converted)
Description: as §1, §2, §3, §4, §5

[2] = reversed-phase C 18, pH 2.7, preparation examples, read-out: logP (pH 2.7)
[3] = reversed-phase C 18, pH 2.7, Table 3, starting materials of formula (VII), read-out: logP (pH 2.7)
[4] = reversed-phase C 18, pH 2.7, preparation examples
[5] = reversed-phase C 18, pH 2.7, Table 2, starting materials of formula (VI), read-out: Physical data: logP values

Structure (SMILES): O=C1CCCC(=O)C2(O)CCN1Cc1cc3c(cc12)OCO3 (centres unmarked) [Example I-3, 12-Hydroxy-9,10,12-trihydro-5H-6,12-ethano[1,3]dioxolo[4,5-k][2]benzazecine-7,11(8H)-dione]
chromatographic logP [1, 2]: 0.99

Structure (SMILES): CC(=O)O[C@H]1C(=O)[C@@]2(C)[C@H]([C@H](OC(=O)c3ccccc3)[C@]3(O)C[C@H](OC(=O)[C@H](O)[C@@H](NC(=O)c4ccccc4)c4ccccc4)C(C)=C1C3(C)C)[C@]1(OC(C)=O)CO[C@@H]1C[C@@H]2O [Taxol]
GI50 (HeLa cells; 48 hours of incubation, calcein-AM fluorescence, cell growth reduced by 50% compared to control): 1e-07 M
GI50 (A375 cells; A-375, 48 hours of incubation, calcein-AM fluorescence, cell growth reduced by 50% compared to control): 1.26e-07 M
GI50 (SW620 cells; SW-620, 48 hours of incubation, calcein-AM fluorescence, cell growth reduced by 50% compared to control): 1e-07 M

Structure (SMILES): CC1(C)O[C@@H]2C(=O)N3CCC(C(=O)C[C@H]2O1)c1cc2c(cc1C3)OCO2 (stereo partly drawn) [Example I-8, (3aS,14aR)-2,2-Dimethyl-6,12,14,14a-tetrahydro-4H-5,12-ethanobis[1,3]dioxolo[4,5-d:4′,5′-k][2]benzazecine-4,13(3aH)-dione]
chromatographic logP [1, 2]: 1.6

Structure (SMILES): O=C1C[C@@H](O)[C@H](O)C(=O)N2CCC1c1cc3c(cc1C2)OCO3 (some centres unmarked) [Example I-10]
chromatographic logP [1, 2]: 0.89

Structure (SMILES): Cc1ccc2c(c1)C1CCN(C2)C(=O)[C@H]2OC(C)(C)O[C@@H]2CC1=O (stereo partly drawn) [Example I-5, (3aS,13aR)-2,2,9-Trimethyl-6,11,13,13a-tetrahydro-4H-5,11-ethanol[1,3]dioxolo[4,5-d][2]benzazecine-4,12(3aH)-dione]
logP (pH 2.7) [1, 4]: 1.92

Structure (SMILES): COc1cc2c(c(OC)c1OC)-c1ccc(OC)c(=O)cc1[C@@H](NC(C)=O)CC2 [Colchicine, colchicine]
GI50 (HeLa cells; 48 h): 1.58e-08 M
GI50 (A375 cells; A-375, 48 h): 2e-08 M
GI50 (SW620 cells; SW-620, 48 h): 1.26e-08 M

Structure (SMILES): Cc1ccc2c(c1)C1(O)CCN(C2)C(=O)[C@H]2OC(C)(C)O[C@@H]2CC1=O (stereo partly drawn) [Example I-1, (3aS,13aR)-11-Hydroxy-2,2,9-trimethyl-6,11,13,13a-tetrahydro-4H-5,11-ethano[1,3]dioxolo[4,5-d][2]benzazecin-4,12(3aH)-one]
logP (pH 2.7) [1, 4]: 1.61

Structure (SMILES): CC1(C)O[C@@H]2C(=O)N3CCC(O)(C(=O)C[C@H]2O1)c1ccc(F)cc1C3 (stereo partly drawn) [Example I-2, (3aS,13aR)-8-Fluoro-11-hydroxy-2,2-dimethyl-6,11,13,13a-tetrahydro-4H-5,11-ethano[1,3]dioxolo[4,5-d][2]benzazecine-4,12(3aH)-dione]
chromatographic logP [1, 2]: 1.49

Structure (SMILES): CC1(C)O[C@@H]2C(=O)N3CCC(C(=O)C[C@H]2O1)c1ccc(F)cc1C3 (stereo partly drawn) [Example I-6, (3aS,13aR)-8-Fluoro-2,2-dimethyl-6,11,13,13a-tetrahydro-4H-5,11-ethano[1,3]dioxolo[4,5-d][2]benzazecine-4,12(3aH)-dione]
chromatographic logP [1, 2]: 1.69

Structure (SMILES): CC1(C)O[C@@H]2C(=O)N3CCC(O)(C(=O)C[C@H]2O1)c1cc2c(cc1C3)OCO2 (stereo partly drawn) [Example I-4, (3aS,14aR)-12-hydroxy-2,2-dimethyl-6,12,14,14a-tetrahydro-4H-5,12-ethanobis[1,3]dioxolo[4,5-d:4′,5′-k][2]benzazecine-4,13(3aH)-dione]
chromatographic logP [1, 2]: 1.38

Structure (SMILES): O=C1CCCC(=O)N2CCC1c1cc3c(cc1C2)OCO3 (centres unmarked) [Example I-7, 9,10,12-Trihydro-5H-6,12-ethano[1,3]dioxolo[4,5-k][2]benzazecine-7,11(8H)-dione]
chromatographic logP [1, 2]: 1.3

Now from value to compound:

chromatographic logP [1, 2]: 0.49
Structure (SMILES): CC1(C)O[C@@H]2C(=O)N3CCC(=CC[C@H]2O1)c1cnccc1C3 [Example Ia-3, (3aS,13aR)-2,2-Dimethyl-3a,6,13,13a-tetrahydro-4H-5,11-ethano[1,3]dioxolo[4,5-c]pyrido[3,4-h]azecin-4-one]

chromatographic logP [1, 2]: 1.33
Structure (SMILES): Cc1ccc2c(c1)C1CCN(C2)C(=O)[C@@H](O)[C@H](O)CC1=O (stereo partly drawn) [Example I-9, (4S,5R)-4,5-Dihydroxy-10-methyl-5,6,8-trihydro-1H-2,8-ethano-2-benzazecine-3,7(4H)-dione]

chromatographic logP [1, 2]: 2.19
Structure (SMILES): CC1(C)O[C@@H]2C(=O)N3CCC(=CC[C@H]2O1)c1cc2c(cc1C3)OCO2 [Example Ia-6, (3aS,14aR)-2,2-Dimethyl-3a,6,14,14a-tetrahydro-4H-5,12-ethanobis[1,3]dioxolo[4,5-d:4′,5′-k][2]benzazecin-4-one]

chromatographic logP [1, 2]: 2.62
Structure (SMILES): Cc1ccc2c(c1)C1=CC[C@H]3OC(C)(C)O[C@@H]3C(=O)N(CC1)C2 [Example Ia-1, (3aS,13aR)-2,2,9-Trimethyl-3a,6,13,13a-tetrahydro-4H-5,11-ethano[1,3]dioxolo[4,5-d][2]benzazecin-4-one]

chromatographic logP [1, 3]: 1.96
Structure (SMILES): CC1(C)O[C@@H]2C(=O)N(Cc3ccncc3Br)CCC=CC[C@H]2O1 [VII-3, (3aS,10aR)-5-[(3-bromopyridin-4-yl)methyl]-2,2-dimethyl-3a,5,6,7,10,10a-hexahydro-4H-[1,3]dioxolo[4,5-c]azonin-4-one]

chromatographic logP [1, 3]: 2.94
Structure (SMILES): O=C1CCCC=CCCN1Cc1cc2c(cc1Br)OCO2 [VII-5, 1-[(6-Bromo-1,3-Benzodioxol-5-yl)Methyl]-1,3,4,5,8,9-Hexahydro-2H-azonin-2-one]

chromatographic logP [1, 2]: 2.01
Structure (SMILES): O=C1CCCC=C2CCN1Cc1cc3c(cc12)OCO3 [Example Ia-5, 5,8,9,10-Tetrahydro-7H-6,12-ethano[1,3]dioxolo[4,5-k][2]benzazecin-7-one]

chromatographic logP [1, 3]: 2.78
Structure (SMILES): COc1cc(Br)c(CN2CCC=CCCCC2=O)cc1OC [VII-4, 1-(2-bromo-4,5-dimethoxybenzyl)-1,3,4,5,8,9-hexahydro-2H-azonin-2-one]

chromatographic logP [1, 5]: 4.83
Structure (SMILES): C=CCCN(Cc1cc(F)ccc1Br)C(=O)[C@H]1OC(C)(C)O[C@@H]1CC=C [VI-2, (4S,5R)-5-allyl-N-(2-bromo-5-fluorobenzyl)-N-but-3-en-1-yl-2,2-dimethyl-1,3-dioxolane-4-carboxamide]

chromatographic logP [1, 3]: 3.09
Structure (SMILES): CC1(C)O[C@@H]2C(=O)N(Cc3cc(F)ccc3Br)CCC=CC[C@H]2O1 [VII-2, (3aS,10aR)-5-(2-bromo-5-fluorobenzyl)-2,2-dimethyl-3a,5,6,7,10,10a-hexahydro-4H-[1,3]dioxolo[4,5-c]azonin-4-one]

chromatographic logP [1, 5]: 5.27
Structure (SMILES): C=CCCN(Cc1ccc(C)cc1Br)C(=O)[C@H]1OC(C)(C)O[C@@H]1CC=C [VI-1, (4S,5R)-5-Allyl-N-(2-bromo-4-methylbenzyl)-N-but-3-en-1-yl-2,2-dimethyl-1,3-dioxolane-4-carboxamide]

chromatographic logP [1, 2]: 2.39
Structure (SMILES): CC1(C)O[C@@H]2C(=O)N3CCC(=CC[C@H]2O1)c1ccc(F)cc1C3 [Example Ia-2, (3aS,13aR)-8-Fluoro-2,2-dimethyl-3a,6,13,13a-tetrahydro-4H-5,11-ethano[1,3]dioxolo[4,5-d][2]benzazecin-4-one]

chromatographic logP [1, 2]: 1.82
Structure (SMILES): COc1cc2c(cc1OC)C1=CCCCC(=O)N(CC1)C2 [Example Ia-4, 10,11-Dimethoxy-1,4,5,6-tetrahydro-3H-2,8-ethano-2-benzazecin-3-one]

chromatographic logP [1, 3]: 3.41
Structure (SMILES): Cc1ccc(CN2CCC=CC[C@H]3OC(C)(C)O[C@@H]3C2=O)c(Br)c1 [VII-1, (3aS,10aR)-5-(2-Bromo-4-methylbenzyl)-2,2-dimethyl-3a,5,6,7,10,10a-hexahydro-4H-[1,3]dioxolo[4,5-c]azonin-4-one]
